{
  "source": "patent US12338220B2",
  "about": "“Antiviral pyrazolopiridinone compounds” (Novartis AG, priority 2019, dated 2025)",
  "key": {"CMV": {"test_system": "CMV", "test": "microbe, parasite or virus in culture", "type": "cell-based", "conditions": "Human betaherpesvirus 5, 72 h, read-out: CMV-Luc Cellular EC50, NN-NHDF cells, MOI 1, 72 hrs"}, "CMV-polymerase": {"target": "CMV-polymerase (Human cytomegalovirus (strain AD169) (HHV-5) (Human herpesvirus 5), UniProt P08546)", "test": "biochemical"}, "[1]": {"conditions": "read-out: CMV-polymerase Biochemical IC50"}, "[2]": {"conditions": "CMV-polymerase Biochemical IC50"}},
  "note": "Like-named read-outs stand apart in the source and are kept apart here.",
  "data": [
    {"smiles": "Cn1nc(C(=O)NCc2ccc(C#N)cc2)c2c1C(=O)N(CC1(S(=O)(=O)C(C)(C)CN3CCOCC3)CC1)CC2", "note": "[Example 61, N-(4-Cyanobenzyl)-1-methyl-6-((1-((2-methyl-1-morpholinopropan-2-yl)sulfonyl)cyclopropyl)methyl)-7-oxo-4,5,6,7-tetrahydro-1H-pyrazolo[3,4-c]pyridine-3-carboxamide]", "values": [
      {"measurement": "EC50", "setting": "CMV", "value": 0.145, "unit": "µM"},
      {"measurement": "IC50", "setting": "CMV-polymerase; [1]", "value": 0.006, "unit": "µM"}
    ]},
    {"smiles": "N#Cc1ccc(CNC(=O)c2nn(C3CC3)c3c2CCN(CC2(S(=O)(=O)C4CC4)CC2)C3=O)cc1", "note": "[Example 43, N-(4-Cyanobenzyl)-1-cyclopropyl-6-((1-(cyclopropylsulfonyl)cyclopropyl)methyl)-7-oxo-4,5,6,7-tetrahydro-1H-pyrazolo[3,4-c]pyridine-3-carboxamide]", "values": [
      {"measurement": "EC50", "setting": "CMV", "value": 0.066, "unit": "µM"},
      {"measurement": "IC50", "setting": "CMV-polymerase; [2]", "value": 0.002, "unit": "µM"}
    ]},
    {"smiles": "CN(CCO)S(=O)(=O)C1(CN2CCc3c(C(=O)NCc4ccc(C#N)cc4)nn(C)c3C2=O)CC1", "note": "[Example 146, N-(4-Cyanobenzyl)-6-((1-(N-(2-hydroxyethyl)-N-methylsulfamoyl)cyclopropyl)methyl)-1-methyl-7-oxo-4,5,6,7-tetrahydro-1H-pyrazolo[3,4-c]pyridine-3-carboxamide]", "values": [
      {"measurement": "EC50", "setting": "CMV", "value": 0.061, "unit": "µM"},
      {"measurement": "IC50", "setting": "CMV-polymerase; [1]", "value": 0.003, "unit": "µM"}
    ]},
    {"smiles": "Cn1nc(C(=O)COc2ccc(C#N)cc2)c2c1C(=O)N(CC1(S(=O)(=O)C3CC3)CC1)CC2", "note": "[Example 25, 4-(2-(6-((1-(Cyclopropylsulfonyl)cyclopropyl)methyl)-1-methyl-7-oxo-4,5,6,7-tetrahydro-1H-pyrazolo[3,4-c]pyridin-3-yl)-2-oxoethoxy)benzonitrile]", "values": [
      {"measurement": "EC50", "setting": "CMV", "value": 0.03, "unit": "µM"},
      {"measurement": "IC50", "setting": "CMV-polymerase; [2]", "value": 0.002, "unit": "µM"}
    ]},
    {"smiles": "Cn1nc(C(=O)NCc2ccc(C#N)cc2)c2c1C(=O)N(CC1(S(=O)(=O)C(C)(C)[C@H](N)CO)CC1)CC2", "note": "[Example 213, (R)-6-((1-((3-Amino-4-hydroxy-2-methylbutan-2-yl)sulfonyl)cyclopropyl)methyl)-N-(4-cyanobenzyl)-1-methyl-7-oxo-4,5,6,7-tetrahydro-1H-pyrazolo[3,4-c]pyridine-3-carboxamide]", "values": [
      {"measurement": "EC50", "setting": "CMV", "value": 0.081, "unit": "µM"},
      {"measurement": "IC50", "setting": "CMV-polymerase; [2]", "value": 0.002, "unit": "µM"}
    ]},
    {"smiles": "Cn1nc(C(=O)NCc2ccc(C#N)cc2)c2c1C(=O)N(CC1(S(=O)(=O)N3CCOCC3)CC1)CC2", "note": "[Example 124, N-(4-Cyanobenzyl)-1-methyl-6-((1-(morpholinosulfonyl)cyclopropyl)methyl)-7-oxo-4,5,6,7-tetrahydro-1H-pyrazolo[3,4-c]pyridine-3-carboxamide]", "values": [
      {"measurement": "EC50", "setting": "CMV", "value": 0.156, "unit": "µM"},
      {"measurement": "IC50", "setting": "CMV-polymerase; [1]", "value": 0.006, "unit": "µM"}
    ]},
    {"smiles": "Cn1nc(C(=O)NCc2ccc(C#N)cc2)c2c1C(=O)N(CC1(S(=O)(=O)N3CC[C@H](N)C3)CC1)CC2", "note": "[Example 142, (S)-6-((1-((3-Aminopyrrolidin-1-yl)sulfonyl)cyclopropyl)methyl)-N-(4-cyanobenzyl)-1-methyl-7-oxo-4,5,6,7-tetrahydro-1H-pyrazolo[3,4-c]pyridine-3-carboxamide]", "values": [
      {"measurement": "EC50", "setting": "CMV", "value": 0.066, "unit": "µM"},
      {"measurement": "IC50", "setting": "CMV-polymerase; [1]", "value": 0.018, "unit": "µM"}
    ]},
    {"smiles": "CN(C)CC(=O)NCC(C)(C)S(=O)(=O)C1(CN2CCc3c(C(=O)NCc4ccc(C#N)cc4)nn(C)c3C2=O)CC1", "note": "[Example 78, N-(4-Cyanobenzyl)-6-((1-((1-(2-(dimethylamino)acetamido)-2-methylpropan-2-yl)sulfonyl)cyclopropyl)methyl)-1-methyl-7-oxo-4,5,6,7-tetrahydro-1H-pyrazolo[3,4-c]pyridine-3-carboxamide]", "values": [
      {"measurement": "EC50", "setting": "CMV", "value": 0.112, "unit": "µM"},
      {"measurement": "IC50", "setting": "CMV-polymerase; [1]", "value": 0.026, "unit": "µM"}
    ]},
    {"smiles": "Cn1nc(C(=O)NCc2ccc(Cl)cc2)c2c1C(=O)N(CC1(S(=O)(=O)N3CC(O)C3)CC1)CC2", "note": "[Example 150, N-(4-Chlorobenzyl)-6-((1-((3-hydroxyazetidin-1-yl)sulfonyl)cyclopropyl)methyl)-1-methyl-7-oxo-4,5,6,7-tetrahydro-1H-pyrazolo[3,4-c]pyridine-3-carboxamide]", "values": [
      {"measurement": "EC50", "setting": "CMV", "value": 0.067, "unit": "µM"},
      {"measurement": "IC50", "setting": "CMV-polymerase; [1]", "value": 0.006, "unit": "µM"}
    ]},
    {"smiles": "CNS(=O)(=O)C1(CN2CCc3c(C(=O)NCc4ccc(Cl)cc4)nn(C)c3C2=O)CC1", "note": "[Example 151, N-(4-Chlorobenzyl)-1-methyl-6-((1-(N-methylsulfamoyl)cyclopropyl)methyl)-7-oxo-4,5,6,7-tetrahydro-1H-pyrazolo[3,4-c]pyridine-3-carboxamide]", "values": [
      {"measurement": "EC50", "setting": "CMV", "value": 0.064, "unit": "µM"},
      {"measurement": "IC50", "setting": "CMV-polymerase; [1]", "value": 0.008, "unit": "µM"}
    ]},
    {"smiles": "N#Cc1ccc(CNC(=O)c2nn(CC3(O)CC3)c3c2CCN(CC2(S(=O)(=O)C4CC4)CC2)C3=O)cc1", "note": "[Example 228, N-(4-Cyanobenzyl)-6-((1-(cyclopropylsulfonyl)cyclopropyl)methyl)-1-((1-hydroxycyclopropyl)methyl)-7-oxo-4,5,6,7-tetrahydro-1H-pyrazolo[3,4-c]pyridine-3-carboxamide]", "values": [
      {"measurement": "EC50", "setting": "CMV", "value": 0.051, "unit": "µM"},
      {"measurement": "IC50", "setting": "CMV-polymerase; [2]", "value": 0.002, "unit": "µM"}
    ]},
    {"smiles": "Cc1cc(C#N)ccc1CNC(=O)c1nn(C)c2c1CCN(CC1(S(=O)(=O)C3CC3)CC1)C2=O", "note": "[Example 12, N-(4-Cyano-2-methylbenzyl)-6-((1-(cyclopropylsulfonyl)cyclopropyl)methyl)-1-methyl-7-oxo-4,5,6,7-tetrahydro-1H-pyrazolo[3,4-c]pyridine-3-carboxamide]", "values": [
      {"measurement": "EC50", "setting": "CMV", "value": 0.087, "unit": "µM"},
      {"measurement": "IC50", "setting": "CMV-polymerase; [1]", "value": 0.002, "unit": "µM"}
    ]},
    {"smiles": "Cn1nc(C(=O)NCc2ccc(Cl)cc2)c2c1C(=O)N(CC1(S(=O)(=O)C(C)(C)[C@H](O)CO)CC1)CC2", "note": "[Example 191, (R)—N-(4-Chlorobenzyl)-6-((1-((3,4-dihydroxy-2-methylbutan-2-yl)sulfonyl)cyclopropyl)methyl)-1-methyl-7-oxo-4,5,6,7-tetrahydro-1H-pyrazolo[3,4-c]pyridine-3-carboxamide]", "values": [
      {"measurement": "EC50", "setting": "CMV", "value": 0.005, "unit": "µM"},
      {"measurement": "IC50", "setting": "CMV-polymerase; [1]", "value": 0.001, "unit": "µM"}
    ]},
    {"smiles": "N#Cc1ccc(CNC(=O)c2nn(CCCO)c3c2CCN(CC2(S(=O)(=O)C4CC4)CC2)C3=O)cc1", "note": "[Example 236, N-(4-Cyanobenzyl)-6-((1-(cyclopropylsulfonyl)cyclopropyl)methyl)-1-(3-hydroxypropyl)-7-oxo-4,5,6,7-tetrahydro-1H-pyrazolo[3,4-c]pyridine-3-carboxamide]", "values": [
      {"measurement": "EC50", "setting": "CMV", "value": 0.077, "unit": "µM"},
      {"measurement": "IC50", "setting": "CMV-polymerase; [1]", "value": 0.004, "unit": "µM"}
    ]},
    {"smiles": "Cn1nc(C(=O)NCc2ccc(Cl)cc2)c2c1C(=O)N(CC1(S(=O)(=O)NCCO)CC1)CC2", "note": "[Example 143, N-(4-Chlorobenzyl)-6-((1-(N-(2-hydroxyethyl)sulfamoyl)cyclopropyl)methyl)-1-methyl-7-oxo-4,5,6,7-tetrahydro-1H-pyrazolo[3,4-c]pyridine-3-carboxamide]", "values": [
      {"measurement": "EC50", "setting": "CMV", "value": 0.138, "unit": "µM"},
      {"measurement": "IC50", "setting": "CMV-polymerase; [1]", "value": 0.019, "unit": "µM"}
    ]},
    {"smiles": "Cn1nc(C(=O)NCc2ccc(C#N)cc2)c2c1C(=O)N(CC1(S(=O)(=O)NCCCN)CC1)CC2", "note": "[Example 134, 6-((1-(N-(3-Aminopropyl)sulfamoyl)cyclopropyl)methyl)-N-(4-cyanobenzyl)-1-methyl-7-oxo-4,5,6,7-tetrahydro-1H-pyrazolo[3,4-c]pyridine-3-carboxamide]", "values": [
      {"measurement": "EC50", "setting": "CMV", "value": 0.443, "unit": "µM"},
      {"measurement": "IC50", "setting": "CMV-polymerase; [1]", "value": 0.031, "unit": "µM"}
    ]},
    {"smiles": "Cn1nc(C(=O)NCc2ccc(Cl)nc2)c2c1C(=O)N(CC1(S(=O)(=O)C(C)(C)CO)CC1)CC2", "note": "[Example 51, N-((6-Chloropyridin-3-yl)methyl)-6-((1-((1-hydroxy-2-methylpropan-2-yl)sulfonyl)cyclopropyl)methyl)-1-methyl-7-oxo-4,5,6,7-tetrahydro-1H-pyrazolo[3,4-c]pyridine-3-carboxamide]", "values": [
      {"measurement": "EC50", "setting": "CMV", "value": 0.172, "unit": "µM"},
      {"measurement": "IC50", "setting": "CMV-polymerase; [1]", "value": 0.006, "unit": "µM"}
    ]},
    {"smiles": "CS(=O)(=O)C1(CN2CCc3c(C(=O)NCc4ccc(Cl)cc4)nn(CCO)c3C2=O)CC1", "note": "[Example 219, N-(4-Chlorobenzyl)-1-(2-hydroxyethyl)-6-((1-(methylsulfonyl)cyclopropyl)methyl)-7-oxo-4,5,6,7-tetrahydro-1H-pyrazolo[3,4-c]pyridine-3-carboxamide]", "values": [
      {"measurement": "EC50", "setting": "CMV", "value": 0.207, "unit": "µM"},
      {"measurement": "IC50", "setting": "CMV-polymerase; [1]", "value": 0.03, "unit": "µM"}
    ]}
  ]
}
